Data as given in a melting point compilation (Tetko et al.; mined from patent text by program, amines drawn as free bases though some values may be those of a salt).

For O=C1OC[C@@H](CF)N1c1nc(-c2ccc(Br)cc2)cs1, the melting point was 148 to 150 °C.
COc1ccccc1OCC(O)CN1CCC(=O)CC1 (stereo not given) showed a melting point of 77 to 78 °C.
With Cc1ncc(COC(=O)c2ccncc2)cc1O the melting point was 180 °C.
O=C1OCc2c(Cl)cccc21 showed a melting point of 80 to 82 °C.
Work on C[Si](C)(C)OCc1cccc2c1c1c(c3ccccc32)-c2c(c3ccccc3c3ccccc23)C1 yielded a melting point of 130 to 131 °C.
CC(CNC(=O)N(CCC(F)(F)F)CCC12CC3CC(CC(C3)C1)C2)Cc1ccncc1 (stereo not given) showed a melting point of 81.1 to 84.1 °C.
Compound CN(C)CC1CCc2cc(NC(=O)c3ccc(-c4ccc(CO)cc4)cc3)ccc2C1 (stereo not given) has a melting point of 138 to 139 °C.
N=C(N)NCCCOc1ccc2cc(CC(=O)O)c(=O)n(Cc3ccccc3)c2c1 showed a melting point of 132 to 134 °C.
For CCn1nc2c(N)nc3cc(OS(=O)(=O)C(F)(F)F)ccc3c2c1CCc1ccccc1, the melting point was 178 to 179 °C.
CN1C(=O)CN(c2ccccc2)C1=O showed a melting point of 168 to 170 °C.
Compound O=c1[nH]c2cc(Cl)c(Cl)cc2n1CCCO has a melting point of 175 °C.
Compound c1ccc(C(c2ccc3[nH]nnc3c2)n2cncn2)cc1 (stereo not given) has a melting point of 183 °C.
For CCCN(CCC)C1Cc2c[nH]c3ccc(C(C)=O)c(c23)C1 (stereo not given), the melting point was 148 to 150 °C.
COc1ccc(S(=O)(=O)Nc2ccc(N(C)C)nc2Nc2ccccc2)cc1 showed a melting point of 152 to 153 °C.
In the case of COc1ccc2c(Nc3ccc4cn[nH]c4c3)c(C#N)cnc2c1, the melting point is reported as > 250 °C.
CCCNc1nc(C#N)c(C#N)nc1SCc1ccccc1 gave a melting point of 153 to 156 °C.
With Clc1ccc(-c2cc3ccccc3s2)cc1 the melting point was 193 to 194 °C.
Work on COc1ccc2c(c1)OCC1CN(C(=O)c3cccnc3)N=C21 (stereo not given) yielded a melting point of 145 to 147 °C.
For O=C(O)CN(CCN(CC(=O)O)C(Cc1ccccc1)C(=O)O)CC(=O)O (stereo not given), the melting point was 120 °C.
With Cc1ccc(-c2ccnc3c(C(N)=O)ncn23)cc1 the melting point was 263 to 266 °C.
Work on COC(=O)CC(=O)c1cc(C(=O)OC)cc(-n2cccc2)c1 yielded a melting point of 82 to 84 °C.
CCOC(=O)c1c(O)c2ccsc2n(Cc2ccccc2)c1=O gave a melting point of 146 °C.
In the case of CC(C)C(C(=O)O)c1ccc(N=[N+]=[N-])cc1 (stereo not given), the melting point is reported as 95 to 97 °C.
Compound COC=C(C(=O)OC)N(C)c1ncnc(-c2ccccc2)n1 has a melting point of 98 to 101 °C.
With CCCc1c(OCC(O)COc2cccc(NC(=O)c3nnn[nH]3)c2C#N)ccc(C(C)=O)c1O (stereo not given) the melting point was 117 to 119 °C.
CN(C)C(=O)C1CCC2C(=O)N(c3ccccc3)C(=O)N12 (stereo not given) showed a melting point of 172 to 174 °C.
Compound O=C1NC(=O)c2c1c(-c1ccccc1)cc1c2c2cc(O)ccc2n1CCN1CCOCC1 has a melting point of 260 to 262 °C.
Compound CCCc1c(OCC(O)CS(=O)(=O)c2ccc(CC(=O)OC)c(F)c2)ccc(C(C)=O)c1O (stereo not given) has a melting point of 118 to 119 °C.
For FC(=C(Cl)Cl)c1ccc(-c2ccccc2)s1, the melting point was 67 to 68.5 °C.
With CC(C)(C)c1cc(C#Cc2ccc(NS(C)(=O)=O)cc2Cl)cc(N2CCC(=O)NC2=O)c1 the melting point was 278 to 280 °C.
COc1ccc(Oc2ccc(C(C)=C3SCCCS3)cc2)cc1OC gave a melting point of 73.5 to 75.5 °C.
O=C1NC(O)C2=C1CN=C(c1ccccc1Cl)c1cc(Cl)ccc12 (stereo not given) showed a melting point of 247 to 249 °C.
With COC(=O)C1=C(C)NC(C)=C(C(=O)OCCCOc2ccc(CCO)cc2)C1c1cccc([N+](=O)[O-])c1 (stereo not given) the melting point was < 50 °C.
Work on CN1CNC(=S)N(c2ccc(F)cc2)C1 yielded a melting point of 173 to 175 °C.
CCCn1cc(C(=O)O)c(=O)c2cc(C)sc21 showed a melting point of 207 to 208 °C.
Work on COc1cc(OCCCN2CCN(c3nn(C(=O)c4ccccc4)c4cc(F)ccc34)CC2)ccc1C(C)=O yielded a melting point of 138 to 140 °C.
CC(C)NS(=O)(=O)c1cc(Br)cc(Br)c1 showed a melting point of 105 to 107 °C.
COC(=O)c1ncn2c1C(C)N=C(c1ccccc1F)c1cc(Cl)ccc1-2 (stereo not given) gave a melting point of 190 to 191 °C.
With CC(C)c1cccc(C(C)C)c1OS(=O)(=O)C(OC(N)=O)c1c(C(C)C)cccc1C(C)C (stereo not given) the melting point was 95 to 101 °C.
CC12C=CC(O)CC1=CCC1C2CCC2(C)C1CCC21OCCO1 (stereo not given) gave a melting point of 138 to 140 °C.
Cc1oc(-c2ccccc2)nc1COc1ccc(OCc2ncccc2CC(=O)O)cc1 showed a melting point of 126 to 127 °C.
CC(C)S(=O)(=O)n1c(N)nc2ccc(C(O)(CC(=O)N(C)C)c3ccccc3)cc21 (stereo not given) showed a melting point of 209 to 210 °C.
CC(C)(C)OC(=O)N1CCC(c2ccc([N+](=O)[O-])cc2)CC1 gave a melting point of 60 to 62 °C.
For CCN1CCN(C(=O)Cc2ccc(I)cc2)CC1, the melting point was 81 to 83 °C.
O=C(Nc1ccc(Cl)nc1Cl)c1ccccc1O showed a melting point of 179 to 186 °C.
In the case of CN(C)CCNC1=C(Br)C(=O)c2sc(C(=O)N3CCN(C(=O)C4CCCO4)CC3)nc2C1=O (stereo not given), the melting point is reported as 161 to 162 °C.
Compound COc1cc2c(cc1OC)OCCC(C(=O)O)=C2 has a melting point of 209 to 210 °C.
CN1C(=O)CC2(CC1=O)c1ccccc1Oc1ccccc12 showed a melting point of 148 to 149 °C.
With CCNc1cc(NS(=O)(=O)c2ccc(N)cc2)nc(N2CCC2)n1 the melting point was 260 to 262 °C.
Work on Cc1cc2c(s1)Nc1ccccc1N=C2N1CCN(C)CC1 yielded a melting point of 190 to 193 °C.
For O=C(Nc1ccc(CN2CCCCC2)cc1)C1=Cc2cc(C3CCCCC3)ccc2CC1, the melting point was 180 to 181 °C.
Work on FC(F)(F)c1cc(CO[C@H]2CCCN(Cc3ccccc3)[C@H]2c2ccccc2)cc(C(F)(F)F)c1 yielded a melting point of 89 to 93 °C.
CC1(C)[C@H]2CC=C(CCOCC(=O)O)[C@@H]1C2 gave a melting point of 78 to 80 °C.
For COC(=O)c1cccc(OC)c1OS(=O)(=O)NC(=O)Nc1nc(OC)cc(OC)n1, the melting point was 169 to 170 °C.
Compound CSc1cc(C)nc(SC)c1NC(=O)CCCCCCCCSc1nc2ccccc2s1 has a melting point of 126 to 127 °C.
For CCOC(=O)c1c(N=Cc2ccc(-c3cccs3)s2)sc(N=Cc2ccc(-c3cccs3)s2)c1C(=O)OCC, the melting point was 130 to 132 °C.
With O=C(NO)[C@H]1CN(c2ccc(N3CCOCC3)c(F)c2)C(=O)O1 the melting point was 141 to 143 °C.
Work on CC(O)=C(C#N)CC(=O)Nc1ccc(OCCCI)cc1 yielded a melting point of 149 °C.
CCOc1ncc(S(C)(=O)=O)cc1C(=O)O gave a melting point of 175 to 176 °C.
Cc1c(F)cccc1NC(=O)CN1CC2CCC(C1)N2S(=O)(=O)c1ccccc1 showed a melting point of 168 to 169 °C.
Compound CCOCCCCC(=O)c1ccc(S(C)=O)cc1 (stereo not given) has a melting point of 69 to 71 °C.
CC(C)(C)OC(=O)N1CCn2c(Br)c(-c3cccc(F)c3)c(C(N)=O)c2C1 gave a melting point of 168 to 174 °C.
Cc1cccc2nn(-c3cc(O)ccc3O)nc12 gave a melting point of 202 to 203 °C.
Compound CCCCn1c(C)c(C(=O)NC2CCN(CCc3ccccc3)CC2)c2cc(O)ccc21 has a melting point of 178 to 181 °C.
Compound CC(COc1c(-c2ccccc2)c(=O)oc2c(Cl)cccc12)CN1CCOCC1 (stereo not given) has a melting point of 120 to 122 °C.
Work on OCCCNC(Cn1ccnc1)c1ccc(Cl)cc1Cl (stereo not given) yielded a melting point of 77 to 79 °C.
Compound CCCOc1cccc(CCOc2ccc3c(c2)C=C(C(=O)Nc2ccc(CN(C)C4CCOCC4)cc2)CCS3(=O)=O)c1 has a melting point of 153 to 154 °C.
Work on O=C1CCOc2ccc([N+](=O)[O-])cc21 yielded a melting point of 171 to 173 °C.
With CC(COc1ccc(-c2ccc(C#N)cc2)cc1)N(O)C=O (stereo not given) the melting point was 141 to 144 °C.
Work on COc1cc(OC)c2c(=O)[nH]c(-c3ccc(OCC(N)=O)cc3)nc2c1 yielded a melting point of 309 to 311 °C.
Compound COc1cc(C)c2ccc(Br)cc2n1 has a melting point of 58 to 60 °C.
COc1ccc(Cn2c(=O)cc(C(F)(F)F)n(C)c2=O)cc1 gave a melting point of 79 to 80 °C.
In the case of Cc1cc2c(cc1Br)C(C)(C)CCC2(C)C, the melting point is reported as 73 °C.
In the case of CN(C)C(=O)c1nnc(S)o1, the melting point is reported as 185 to 187 °C.
With CCOC(=O)c1cc(C(=O)Nc2ccccc2OC(C)=O)cc(Cl)c1O the melting point was 163 to 166 °C.
In the case of CC1CC2C3CCC4=CC(=O)C=CC4(C)C3=CCC2(C)C1C(=O)CN1CCN(c2cc(NCC(C)(C)C)nc(NC(C)(C)C)n2)CC1 (stereo not given), the melting point is reported as 155 to 160 °C.
For CC(C)(C)OC(=O)NCCn1c(=S)[nH][nH]c(=O)c1=O, the melting point was 160 °C.
With CCNc1nc(-c2ccc(F)cc2)c(-c2ccc(S(C)(=O)=O)cc2)s1 the melting point was 218 to 219 °C.
Work on CC(C)Oc1cccc(C=C2Oc3ccc(C(=O)O)cc3C2=O)c1 yielded a melting point of 277 to 279 °C.
Work on CC(C)OC(=O)C(C)(C)c1cn2nc(Cl)ccc2n1 yielded a melting point of 100 to 101 °C.
Work on CC(=O)NC(C)(C)c1ccc(CN2CCN(c3ncccn3)CC2)cc1 yielded a melting point of 137 to 138 °C.
O=C1c2c(Cl)cccc2-n2cnc(-c3noc(CCl)n3)c2[C@@H]2CCN12 showed a melting point of 211 to 212 °C.
In the case of COc1ccc(-c2[nH]nc3c2C(=O)c2c(NC(=O)NNC(=O)c4cccc(N)c4)cccc2-3)cc1, the melting point is reported as 250 °C.
In the case of COc1ccc(C(=O)Nc2ccccc2)cc1NCc1ccc(C(C)C)cc1, the melting point is reported as 174 to 176 °C.
Compound O=C(Cc1ccc(Br)cc1)c1ccc(Cl)cc1 has a melting point of 123 °C.
In the case of C=C1C(O)C(CO)OC1n1cc(C)c(=O)[nH]c1=O (stereo not given), the melting point is reported as 161 to 162 °C.
Compound CCN1C(=O)C(C)(C)C(=O)N(C)c2cc(CN(CCn3ccc4oc(C)cc4c3=O)Cc3cncnc3)ccc21 has a melting point of 146 to 148 °C.
Compound CCCc1c(CSc2ncccc2OCC(=O)OCC)ccc(C(C)=O)c1O has a melting point of 98 to 100 °C.
For CCSC(N)=C(C#N)C#N, the melting point was 180 to 182 °C.
Compound CCCCCC[C@@H](C)Oc1cc2sc(C(=O)OC)c(O)c2cc1[N+](=O)[O-] has a melting point of 54 to 55 °C.
With Cc1c(N2C[C@@H]3CCCN[C@@H]3C2)c(F)cc2c(=O)c(C(=O)O)cn([C@@H]3C[C@@H]3F)c12 the melting point was 244 to 245 °C.
For C#CCCCOc1ccc(/C=C/C(=O)Nc2ccccc2C(=O)O)cc1OC, the melting point was 166 to 168 °C.
In the case of COc1cc2nc(C(=O)Nc3cc(C)cc(C)n3)[nH]c2cc1OC, the melting point is reported as 256 °C.
Work on Cc1ccccc1NC(=O)c1ccc(C(=O)N2Cc3cccn3Cc3ccccc32)cc1 yielded a melting point of 228 to 231 °C.
CCCCc1oc2ccccc2c1C(=O)c1ccc(N(CCN(CC)CC)S(=O)(=O)c2cccnc2)cc1 showed a melting point of 141 to 146 °C.
Compound O=C(NC=CC1CC2C=CC1C2)n1cc(F)c(=O)[nH]c1=O (stereo not given) has a melting point of 130 to 132 °C.
Work on Cn1ncc2c1-c1c(Sc3ccccn3)sc(C(=O)O)c1CC2 yielded a melting point of 231 to 232 °C.
For Cc1ccc(NC(=O)NCc2cccc3c2CN(C2CCC(=O)NC2=O)C3=O)cc1Cl (stereo not given), the melting point was > 260 °C.
Compound CCC(c1oc2ccccc2c(=O)c1-c1ccccc1F)n1cnc2c(N)ncnc21 (stereo not given) has a melting point of 160 to 163 °C.
Compound CCOC(=O)c1c(N2CCN(C)CC2)c2ccccc2n(C)c1=O has a melting point of 144 to 148 °C.
